Series [1] in a line: Organoleptic characteristics of the active ingredient as noted by the inventors. Conditions: for irritation of the mucosae: unmasked active ingredient, oropharynx.
A further series in a line: Solubility in saliva. The class given is physicochemical.

With `C[C@H](NCc1ccc(OCc2cccc(F)c2)cc1)C(N)=O` [safinamide methanesulfonate, Safinamide methanesulfonate], in series [1] (attempts to modify the pH of the pharmaceutical preparation), the “irritant effect in the oral cavity” value was “did not lead to a reduction of the irritant effect”. Also, the “irritation of the mucosae” value in series [1] is “pronounced tendency to irritate the mucosae of the first section of the oropharynx”. The solubility in saliva entry in “Solubility in saliva” is on record as “fairly soluble in saliva”.

In the case of “(2 S)-2-[[4-[(3-fluorophenypmethoxy]phenyl]methyl amino]propanamide [safinamide]”, the “irritation of the mucosae” value in series [1] is “pronounced tendency to irritate the mucosae of the first section of the oropharynx”.
